Experimental data reported in paper PMC11942905, “Identification of a Selective Inhibitor of Human NFS1, a Cysteine Desulfurase Involved in Fe-S Cluster Assembly, via Structure-Based Virtual Screening” (International Journal of Molecular Sciences, 2025).

What was measured:
BEAS-2B cells = test: CCK-8 cell viability assay, BEAS-2B; type: cell-based; settings: Homo sapiens, CCK-8, 72 h
Experimental: Human bronchial epithelial cells (BEAS-2B) and human lung adenocarcinoma A549 cells were purchased from the Institute of Biochemistry and Cell Biology, Chinese Academy of Sciences (Shanghai, China). BEAS-2B and A549 cells were cultured in DMEM supplemented with 10% (v/v) fetal bovine serum and 1% (v/v) penicillin–streptomycin solution at 37 °C in a humidified atmosphere containing 5% CO2. The half-maximal inhibitory concentration (IC50) values of the selected compounds against BEAS-2B and A549 cells were determined using the CCK-8 assay. Briefly, the cells were seeded into 96-well culture plates at a density of 5 × 10^3 cells per well. After 12 h of culture, fresh medium containing varying concentrations of the selected compounds dissolved in DMSO was added for an additional 72-hour incubation. Subsequently, 10 μL of CCK-8 solution was added to each well, followed by a further 1.5-h incubation at 37 °C. The optical density at 450 nm (OD450) for each well was measured using a microplate reader. Medium containing DMSO alone was used as the control group. Cell viability was calculated as the percentage of the OD450 of the experimental group compared to that of the control group, which was set at 100%.

NFS1 C158A = target: T1, NFS1 C158A (Homo sapiens, UniProt Q9Y697, C158A); test: H2S-producing assay, NFS1 C158A mutant; type: biochemical
T1 construct: His tag (N); made in house; host or cells: E. coli BL21(DE3)
Experimental: To further validate the accuracy of the simulated results, the residues Cys158, Glu387, Lys157, and His156 were mutated to alanine using site-directed mutagenesis.
For the expression and purification of NFS1Δ1-55/ISD11 in E. coli, the plasmid pNFS1-ISD11 was transformed into BL21(DE3) cells. The cells were grown at 37 °C in 1 L cultures of LB medium containing chloramphenicol (50 μg/ml) until the optical density at 600 nm (OD600) reached 0.6–0.8. Protein expression was induced by adding 0.1 mM isopropyl β-D-1-thiogalactopyranoside (IPTG), followed by an additional 12 h of incubation at 25 °C. The cells were harvested by centrifugation at 8000 rpm for 10 min at 4 °C, then resuspended in lysis buffer containing 50 mM phosphate-buffered saline (PBS, pH 7.4), 500 mM NaCl, 100 mg/L lysozyme, 30 mM imidazole, and 1 mM phenylmethanesulfonyl fluoride (PMSF). The resuspended cells were incubated on ice for 1 h, followed by sonication using an Ultrasonic Cell Disruption System (Scientz, Ningbo, China). The supernatant was obtained by centrifugation at 12,000 rpm for 30 min at 4 °C and was loaded onto a HisTrap FF column (GE Healthcare, Chicago, MA, USA) pre-equilibrated with lysis buffer. […] The protein concentration was measured using a BCA protein assay reagent kit (TransGen Biotech, Beijing, China).

A549 cells = test: Lipid peroxide (LPO) content; type: cell-based, human; settings: 48 h, Erastin 2.5 µM, Compound 53 50 µM, 2-AAPA 20 µM, alone or combined
Experimental: A549 cells were seeded in 10 cm dishes at a density of 2 × 10^6 cells per dish and cultured until they reached 40–60% confluence. […] Lipid peroxidation (LPO) levels were measured using a Lipid Peroxide (LPO) Content Assay Kit (Solarbio, China) following the manufacturer’s instructions.

human NFS1 = target: T2, human NFS1 (Homo sapiens, UniProt Q9Y697); test: NFS1 inhibition assay (H2S-producing, methylene blue); type: biochemical
T2 construct: His tag (N); made in house; host or cells: E. coli BL21(DE3)
Experimental: The 42 candidate compounds were tested for their inhibitory effects on human NFS1 using an in vitro H2S-producing assay. […] Subsequently, the effects of the selected compounds (100 µM) on human NFS1 activity were evaluated.
The activity of NFS1 was determined using a methylene blue assay as described previously, with some modifications. Briefly, reaction mixtures (200 μL) containing 50 mM of Tris-HCl (pH 8.0), 10 μM of PLP, 1 mM of DTT, and 10 μg of NFS1 were preincubated at 37 °C for 3 min. The reaction was then initiated by adding 1 mM of cysteine. After 15 min of incubation at 37 °C, the reaction was quenched by adding 25 μL of 20 mM N,N-dimethyl-p-phenylenediamine in 7.2 M of HCl and 25 μL of 30 mM FeCl3 in 1.2 M of HCl. Subsequently, the reaction mixtures were incubated for another 15 min at 37 °C, followed by centrifugation at 12,000 rpm for 10 minutes to remove the precipitates. The absorbance of the supernatant was measured at 670 nm. A reaction mixture without the substrate cysteine was used as the negative control. The H2S concentration was calculated based on a standard curve prepared using various concentrations of sodium sulfide (Na2S).
For the NFS1 inhibition assays, all test compounds were dissolved in dimethyl sulfoxide (DMSO) to prepare 10 mM stock solutions, which were stored at −80 °C. The stock solutions were diluted to the appropriate concentrations with 50 mM of Tris-HCl (pH 8.0) as required for the experiments. A reaction mixture containing DMSO but no test compounds was used as a negative control. The dose-dependent effects of the inhibitors on NFS1 activity were determined using the methylene blue assay described above. The IC50 values of the inhibitors were calculated by adding different concentrations of the inhibitors to the enzyme reaction mixtures.

T2 sequence (Q9Y697 56-457): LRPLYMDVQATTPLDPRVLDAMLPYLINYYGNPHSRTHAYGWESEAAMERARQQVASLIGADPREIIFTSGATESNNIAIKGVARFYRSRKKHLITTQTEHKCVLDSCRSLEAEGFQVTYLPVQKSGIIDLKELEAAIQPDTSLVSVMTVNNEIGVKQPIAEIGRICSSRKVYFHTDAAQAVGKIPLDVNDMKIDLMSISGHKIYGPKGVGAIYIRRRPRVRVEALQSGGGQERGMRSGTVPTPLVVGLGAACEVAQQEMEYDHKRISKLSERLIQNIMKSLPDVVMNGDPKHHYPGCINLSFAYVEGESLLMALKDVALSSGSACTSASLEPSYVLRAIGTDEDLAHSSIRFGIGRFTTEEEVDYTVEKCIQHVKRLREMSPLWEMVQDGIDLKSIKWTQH
T1 sequence (Q9Y697 56-457 C158A): as the sequence (Q9Y697 56-457) above, with C103A counted along it

**Q.** Which results are given for `COc1cc(/C=N/NC(=O)COc2ccc(Cl)cc2Cl)ccc1O` [Compound 53]?
**A.** IC50 (BEAS-2B cells): 31 ± 3.98 µM; IC50 (NFS1 C158A): 114 ± 3.45 µM; intracellular lipid peroxide (LPO) levels (A549 cells): no significant changes; IC50 (human NFS1): 40.5 ± 3.85 µM; Ki (human NFS1): 6.4 ± 0.48 µM; Vmax (human NFS1; inhibitor 5 μM): 144.2 ± 2.81 nmol/min/mg; Vmax (human NFS1; inhibitor 10 μM): 143.3 ± 4.06 nmol/min/mg; Vmax (human NFS1; inhibitor 20 μM): 144.1 ± 4.88 nmol/min/mg; Vmax (human NFS1; inhibitor 50 μM): 143.5 ± 4.31 nmol/min/mg; Vmax (human NFS1; inhibitor 100 μM): 143.8 ± 8.75 nmol/min/mg; inhibition at 50 µM (human NFS1; read-out: inhibition of NFS1 activity): 40 to 50%; Inhibition Type (human NFS1; versus substrate L-cysteine): competitive inhibitors
